Data as given in the supplement of paper PMC10627819.

What was measured:
[1] = system: S. pneumoniae D39V; assay: Bliss interaction score (quartile over a dose matrix) (fitness difference); higher = more antagonism (negative = synergy)
In short: (§1)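 Fitness is OD595 at stationary-phase entry relative to the plate's robust no-drug mean, capped at 1. Single-drug fitness was inferred from combinations. The Bliss score is observed minus product-expected fitness, summarised by quartiles over technical, biological and donor/recipient replicates.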

[2] = system: S. aureus Newman; assay: as above
In short: as §1

[3] = system: S. aureus DSM 20231; assay: as above
In short: as §1

[4] = system: B. subtilis 168; assay: as above
In short: as §1

[5] = system: S. pneumoniae D39V; assay: fitness (endpoint OD595 vs no drug) (fraction); higher = more growth
In short: (§2)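 At 37 °C, bacteria in TSB, LB Lennox or CY were grown in 384-well plates from a starting OD595 of 0.01. OD595 was measured every 30 min for 14 h, with the first reading used as background. Fitness is the optical density at the switch to stationary phase as a fraction of the robust mean of no-drug control wells, capped at 1.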

[6] = system: S. aureus Newman; assay: as above
In short: as §2
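For Bliss interaction score (quartile over a dose matrix) in this document: first quartile when negative (synergy) and third quartile when positive (antagonism).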

C/C(=C\C(=O)OCCCCCCCCC(=O)O)C[C@@H]1OC[C@H](C[C@@H]2O[C@H]2[C@@H](C)[C@H](C)O)[C@@H](O)[C@H]1O [Pseudomonic acid] + CN[C@@H]1[C@H](O)[C@H](NC)[C@H]2O[C@@]3(O)C(=O)C[C@@H](C)O[C@H]3O[C@@H]2[C@H]1O [Spectinomycin]
Conditions | Bliss interaction score
[1] | -0.0665
[2] | -0.0301
[3] | -0.0116
[4] | 0.0538

fitness, [5]
Conditions | first compound 0.03 µg/mL | first compound 0.06 µg/mL | first compound 0.12 µg/mL
partner 4 µg/mL | 0.899 | 0.87 | 0.564
partner 8 µg/mL | 0.924 | 0.793 | 0.53
partner 16 µg/mL | 0.756 | 0.716 | 0.443

fitness, [6], one replicate
Conditions | first compound 0.0313 µg/mL | first compound 0.0625 µg/mL | first compound 0.125 µg/mL
partner 4 µg/mL | 0.0277 | 0.0288 | 0.0466
partner 8 µg/mL | 0.0165 | 0.0234 | 0.0364
partner 16 µg/mL | 0.0048 | 0.0214 | 0.0111

O=C(N[C@H](CO)[C@H](O)c1ccc([N+](=O)[O-])cc1)C(Cl)Cl [Chloramphenicol] + CN[C@@H]1[C@H](O[C@H]2[C@H](O[C@H]3[C@H](O)[C@@H](O)[C@H](N=C(N)N)[C@@H](O)[C@@H]3N=C(N)N)O[C@@H](C)[C@]2(O)C=O)O[C@@H](CO)[C@H](O)[C@H]1O [Streptomycin]
Conditions | Bliss interaction score
[1] | -0.0647
[2] | -0.0754
[3] | 0.0438
[4] | 0.144

fitness, [6]
Conditions | first compound 0.75 µg/mL | first compound 1.5 µg/mL | first compound 3 µg/mL
partner 1 µg/mL | 0.755 | 0.537 | 0.213
partner 2 µg/mL | – | 0.465 | 0.177
partner 4 µg/mL | – | – | 0.128

CCCCCCCCCC(=O)N[C@H]1[C@H](Oc2c3cc4cc2Oc2ccc(cc2Cl)[C@@H](O[C@@H]2O[C@H](CO)[C@@H](O)[C@H](O)[C@H]2NC(C)=O)[C@@H]2NC(=O)[C@H](NC(=O)[C@@H]4NC(=O)[C@H]4NC(=O)[C@@H](Cc5ccc(c(Cl)c5)O3)NC(=O)[C@H](N)c3ccc(O)c(c3)Oc3cc(O)cc4c3)c3ccc(O)c(c3)-c3c(O[C@H]4O[C@H](CO)[C@@H](O)[C@H](O)[C@@H]4O)cc(O)cc3[C@@H](C(=O)O)NC2=O)O[C@H](CO)[C@@H](O)[C@@H]1O [Teicoplanin] + CN(C)c1cc(NC(=O)CNC(C)(C)C)c(O)c2c1C[C@H]1C[C@H]3[C@H](N(C)C)C(O)=C(C(N)=O)C(=O)[C@@]3(O)C(O)=C1C2=O [Tigecycline]
main component drawn
Conditions | Bliss interaction score
[1] | 0.0619
[2] | 0.0513
[3] | 0.108
[4] | 0.123

fitness, [6], main component drawn
Conditions | first compound 0.1562 µg/mL | first compound 0.3125 µg/mL | first compound 0.625 µg/mL
partner 0.039 µg/mL | ≥ 1 | 0.98 | ≥ 1
partner 0.078 µg/mL | ≥ 1 | 0.963 | ≥ 1
partner 0.156 µg/mL | ≥ 1 | ≥ 1 | ≥ 1

fitness, [6], one replicate, main component drawn
Conditions | first compound 0.62 µg/mL | first compound 1.24 µg/mL | first compound 2.48 µg/mL
partner 0.039 µg/mL | 0.757 | 0.736 | 0.456
partner 0.078 µg/mL | 0.754 | 0.746 | 0.453
partner 0.156 µg/mL | 0.813 | 0.756 | 0.427

C/C(=C\C(=O)OCCCCCCCCC(=O)O)C[C@@H]1OC[C@H](C[C@@H]2O[C@H]2[C@@H](C)[C@H](C)O)[C@@H](O)[C@H]1O [Pseudomonic acid] + CN[C@H](CC(C)C)C(=O)N[C@H]1C(=O)N[C@@H](CC(N)=O)C(=O)N[C@H]2C(=O)N[C@H]3C(=O)N[C@H](C(=O)N[C@H](C(=O)O)c4cc(O)cc(O)c4-c4cc3ccc4O)[C@H](O)c3ccc(c(Cl)c3)Oc3cc2cc(c3O[C@@H]2O[C@H](CO)[C@@H](O)[C@H](O)[C@H]2O[C@H]2C[C@](C)(N)[C@H](O)[C@H](C)O2)Oc2ccc(cc2Cl)[C@H]1O [Vancomycin]
Conditions | Bliss interaction score
[1] | 0.137
[2] | -0.0276
[3] | -0.0086
[4] | 0.0278

fitness, [5]
Conditions | partner 0.03125 µg/mL | partner 0.0625 µg/mL | partner 0.125 µg/mL | partner 0.5 µg/mL
first compound 0.03 µg/mL | 0.983 | 0.973 | 0.9 | –
first compound 0.06 µg/mL | 0.873 | 0.865 | – | 0.259
first compound 0.12 µg/mL | 0.641 | 0.611 | – | 0.21

fitness, [6], one replicate
Conditions | first compound 0.0313 µg/mL | first compound 0.0625 µg/mL | first compound 0.125 µg/mL
partner 0.1875 µg/mL | 0.0232 | 0.0221 | 0.0473
partner 0.375 µg/mL | 0.0206 | 0.0409 | 0.0505
partner 0.75 µg/mL | 0.0349 | 0.053 | 0.0388

C/C(=C\C(=O)OCCCCCCCCC(=O)O)C[C@@H]1OC[C@H](C[C@@H]2O[C@H]2[C@@H](C)[C@H](C)O)[C@@H](O)[C@H]1O [Pseudomonic acid] + CN1C2=CC=CC=C2N=C3C1=CC=CC3=O [Pyocyanin]
Conditions | Bliss interaction score
[1] | -0.0764
[2] | 0.0185
[3] | 0.0163
[4] | -0.0558

fitness, [5]
Conditions | first compound 0.03 µg/mL | first compound 0.06 µg/mL | first compound 0.12 µg/mL
partner 0.325 µg/mL | 0.955 | 0.849 | 0.611
partner 0.65 µg/mL | 0.932 | 0.843 | 0.554
partner 1.3 µg/mL | – | 0.55 | 0.395

fitness, [6], one replicate
Conditions | first compound 0.0313 µg/mL | first compound 0.0625 µg/mL | first compound 0.125 µg/mL
partner 1.25 µg/mL | 0.0664 | 0.0399 | 0.0453
partner 2.5 µg/mL | 0.0672 | 0.0381 | 0.0514
partner 5 µg/mL | 0.0481 | 0.0417 | 0.057
